Measured values: ChEMBL document CHEMBL1157339, “Sundaicumones A and B, polyprenylated acylphloroglucinol derivatives from Calophyllumsundaicum with weak activity against the glucocorticoid receptor” (J Nat Prod, 2006)

Molecular target: T1, Glucocorticoid receptor (Homo sapiens, UniProt P04150)
T1 sequence (P04150 whole entry): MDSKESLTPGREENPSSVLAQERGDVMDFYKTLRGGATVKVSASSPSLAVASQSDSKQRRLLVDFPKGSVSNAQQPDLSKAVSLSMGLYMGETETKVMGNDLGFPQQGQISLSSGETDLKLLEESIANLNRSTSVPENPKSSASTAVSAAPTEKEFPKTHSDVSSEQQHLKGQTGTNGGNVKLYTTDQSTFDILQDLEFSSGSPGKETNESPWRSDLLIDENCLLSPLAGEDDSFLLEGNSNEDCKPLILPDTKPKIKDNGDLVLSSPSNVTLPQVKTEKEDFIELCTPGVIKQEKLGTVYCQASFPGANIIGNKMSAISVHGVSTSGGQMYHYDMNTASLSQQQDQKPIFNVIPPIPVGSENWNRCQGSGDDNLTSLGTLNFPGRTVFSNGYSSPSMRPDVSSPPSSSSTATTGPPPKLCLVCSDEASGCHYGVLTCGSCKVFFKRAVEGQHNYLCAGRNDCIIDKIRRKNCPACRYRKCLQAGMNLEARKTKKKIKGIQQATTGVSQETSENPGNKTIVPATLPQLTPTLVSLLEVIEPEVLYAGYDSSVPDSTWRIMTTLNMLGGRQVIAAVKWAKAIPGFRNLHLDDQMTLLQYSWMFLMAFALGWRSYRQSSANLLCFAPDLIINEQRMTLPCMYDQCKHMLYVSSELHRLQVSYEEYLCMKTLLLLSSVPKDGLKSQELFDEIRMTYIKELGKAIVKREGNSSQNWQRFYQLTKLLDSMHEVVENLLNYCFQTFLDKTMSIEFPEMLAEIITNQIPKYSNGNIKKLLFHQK
Test: Activity at glucocorticoid receptor in human A549 cells assessed as effect on GRE promoter response by luciferase reporter assay
Type: cell-based

Row | SMILES | EC50
1 | CCCC(CC(=O)O)C1=C2O[C@H](C(C)(C)O)C[C@@]23C[C@H](CC=C(C)C)C(C)(C)[C@@](C(=O)C(C)CC)(C1=O)C3=O (some centres not stated) [SUNDAICUMONE B] | 75 µM
2 | CCCC(CC(=O)O)C1=C2O[C@H](C(C)(C)O)C[C@@]23C[C@H](CC(O)C(C)(C)O)C(C)(C)[C@@](C(=O)C(C)CC)(C1=O)C3=O (some centres not stated) [SUNDAICUMONE A] | 173 µM
